The text below walks through data of patent publication US7875644B2, “1-acyldihydropyrazole derivatives” (Merck Patent GmbH, priority 2005, dated 2011).

For the test, the target named is T1, Met kinase (Homo sapiens, UniProt P08581).
T1 construct: 6His (N); purchased Upstate 14-526; host or cells: Sf21 insect cells (S. frugiperda), baculovirus
Description: Met kinase inhibition, flashplate method. Format: biochemical. The conditions noted are these: 33P-ATP, substrate pAGLT, 3 hrs at room temperature. From the text: According to the manufacturer's data (Met, active, upstate, catalogue No. 14-526), Met kinase is expressed for the purposes of protein production in insect cells (Sf21; S. frugiperda) and subsequent affinity-chromatographic purification as “N-terminal 6His-tagged” recombinant human protein in a baculovirus expression vector.
The test plates used are 96-well Flashplate^R microtitre plates from Perkin Elmer (Cat. No. SM P200). The components of the kinase reaction described below are pipetted into the assay plate. The Met kinase and the substrate poly Ala-Glu-Lys-Tyr, (pAGLT, 6:2:5:1), are incubated for 3 hrs at room temperature with radioactively labelled ^33P-ATP in the presence and absence of test substances in a total volume of 100 μl. The reaction is terminated using 150 μl of a 60 mM EDTA solution. After incubation for a further 30 min at room temperature, the supernatants are filtered off with suction, and the wells are washed three times with 200 μl of 0.9% NaCl solution each time. The measurement of the bound radioactivity is carried out by means of a scintillation measuring instrument (Topcount NXT, Perkin-Elmer).
The full value used is the inhibitor-free kinase reaction. This should be approximately in the range 6000-9000 cpm. The pharmacological zero value used is staurosporin in a final concentration of 0.1 mM. The inhibitory values (IC50) are determined using the RS1_MTS program.
Kinase reaction conditions per well: • 30 μl of assay buffer • 10 μl of substance to be tested in assay buffer with 10% of DMSO • 10 μl of ATP (final concentration 1 μM cold, 0.35 μCi of ^33P-ATP) • 50 μl of Met kinase/substrate mixture in assay buffer; • (10 ng of enzyme/well, 50 ng of pAGLT/well) • Solutions used: • Assay buffer: • 50 mM HEPES • 3 mM magnesium chloride • 3 μM sodium orthovanadate • 3 mM manganese(II) chloride • 1 mM dithiothreitol (DTT) • pH=7.5 (to be set using sodium hydroxide) • Stop solution: • 60 mM Titriplex III (EDTA) • ^33P-ATP: Perkin-Elmer; • Met kinase: Upstate, Cat. No. 14-526, Stock 1 μg/10 μl; spec. activity 954 U/mg; • Poly-Ala-Glu-Lys-Tyr, 6:2:5:1:Sigma Cat. No. P1152

T1 sequence (P08581 974-1390 limits assumed): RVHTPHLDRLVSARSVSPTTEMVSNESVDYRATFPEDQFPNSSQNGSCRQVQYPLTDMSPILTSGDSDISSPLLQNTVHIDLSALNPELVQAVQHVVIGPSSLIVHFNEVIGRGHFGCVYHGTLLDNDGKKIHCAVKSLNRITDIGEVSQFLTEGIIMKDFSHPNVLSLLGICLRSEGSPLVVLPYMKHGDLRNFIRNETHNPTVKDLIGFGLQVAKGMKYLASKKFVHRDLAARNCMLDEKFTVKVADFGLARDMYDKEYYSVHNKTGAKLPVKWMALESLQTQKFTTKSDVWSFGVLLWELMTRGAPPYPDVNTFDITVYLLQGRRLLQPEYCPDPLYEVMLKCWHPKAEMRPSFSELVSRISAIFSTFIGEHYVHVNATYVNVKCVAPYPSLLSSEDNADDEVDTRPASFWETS

One may read the IC50 as the midpoint of a concentration-inhibition curve. Low values mean greater potency, high ones weaker potency. Compound `COc1ccc(C2=NN(C(=O)Cc3ccc4nsnc4c3)CC2)c(OC)c1` [Compound A1, 1-(benzo-1,2,5-thiadiazol-5-ylmethylcarbonyl)-3-(2,4-dimethoxyphenyl)-4,5-dihydro-1H-pyrazole] had an IC50 of 320 nM.
With `O=C(Cc1ccc2nsnc2c1)N1CCC(c2ccc(F)cc2)=N1` [Compound A2, 1-(benzo-1,2,5-thiadiazol-5-ylmethylcarbonyl)-3-(4-fluorophenyl)-4,5-dihydro-1H-pyrazole], the IC50 was found to be 610 nM.
The same measure for `COc1ccc(C2=NN(C(=O)Cc3cccc(O)c3)CC2)c(OC)c1` [Compound A30, 1-(3-Hydroxybenzylcarbonyl)-3-(2,4-dimethoxy-phenyl)-4,5-dihydro-1H-pyrazole]: 990 nM.
The same measure for `O=C(Cc1cccc(O)c1)N1CCC(c2ccc(F)cc2)=N1` [Compound A31, 1-(3-Hydroxybenzylcarbonyl)-3-(4-fluorophenyl)-4,5-dihydro-1H-pyrazole]: 330 nM; for `CC(C(=O)N1CCC(c2ccc3c(c2)CNC(=O)N3)=N1)c1ccc(O)cc1` (stereo not drawn) [Compound A100, 3-(2-Oxo-3,4-dihydro-1H-quinazolin-6-yl)-1-[2-(4-hydroxyphenyl)propionyl]-4,5-dihydro-1H-pyrazole]: 9 nM; for `O=C(Cc1ccc2[nH]cnc2c1)N1CCC(c2cc(Cl)ccc2O)=N1` [Compound A108, 1-[2-(1H-Benzimidazol-5-yl)acetyl]-3-(3-chloro-6-hydroxyphenyl)-4,5-dihydro-1H-pyrazole]: 3 nM.
Turning to `CC(C(=O)N1CCC(c2cc(Cl)ccc2O)=N1)c1ccc(O)cc1` (stereo not drawn) [Compound A120, 3-(3-Chloro-6-hydroxyphenyl)-1-[2-(4-hydroxy-phenyl)propionyl]-4,5-dihydro-1H-pyrazole], the midpoint of inhibition, the IC50, lay at 3.6 nM.
The result for `CN(C)CCCOC(=O)Nc1cccc(CC(=O)N2CCC(c3cc(Cl)ccc3Cl)=N2)c1` [Compound A153, 3-Dimethylaminopropyl (3-{2-[3-(2,5-dichlorophenyl)-4,5-dihydro-1H-pyrazol-1-yl]-2-oxoethyl}phenyl)carbamate] reads 8 nM.
The result for `O=C(Nc1cccc(CC(=O)N2CCC(c3cc(Cl)ccc3Cl)=N2)c1)OCCCN1CCOCC1` [Compound A154, 3-morpholin-4-ylpropyl (3-{2-[3-(2,5-dichlorophenyl)-4,5-dihydro-1H-pyrazol-1-yl]-2-oxoethyl}phenyl)carbamate] reads 2.5 nM.
